# Experimental data published in the supplement of paper PMC10307832.
# Assays:
# Assay in all cases: relative viability (nuclei count vs DMSO), 5 days (fraction); higher = more cells survive
# [1] = compound: CC1(C)CNc2cc(NC(=O)c3cccnc3NCc3ccncc3)ccc21 [Motesanib] + CC1(C)CCC(c2ccc(Cl)cc2)=C(CN2CCN(c3ccc(C(=O)NS(=O)(=O)c4ccc(N[C@H](CCN5CCOCC5)CSc5ccccc5)c(S(=O)(=O)C(F)(F)F)c4)cc3)CC2)C1 [Navitoclax] (partner 0.5 µM)
# How it was run: (§1)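 After 5 days of treatment, lung cancer cells in 1536-well plates were fixed and stained in a single step (final 0.05% Triton X-100, 1% formaldehyde, 1 ug/ml Hoechst) and their nuclei counted on 4× images. Treatment had been applied by pin tool the day after seeding as one drug alone or as a fixed anchor-drug dose with five library-drug doses (not always all listed) in √10 steps. Relative viability is the nuclei count of treated wells divided by that of vehicle wells, and values are medians of duplicate plates.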
# [2] = compound: CC1(C)CNc2cc(NC(=O)c3cccnc3NCc3ccncc3)ccc21 [Motesanib] + N=C(N)NC(=N)NCCc1ccccc1 [Phenformin] (partner 250 µM)
# How it was run: as §1
# [3] = compound: C[C@@]1(C(=O)Nc2ccc(F)nc2)CCCN1c1nc(Nc2cc(C3CC3)n[nH]2)c2cccn2n1 + CCNC(=O)c1noc(-c2cc(C(C)C)c(O)cc2O)c1-c1ccc(CN2CCOCC2)cc1 [Luminespib] (partner 0.01 µM)
# How it was run: as §1
# [4] = compound: C[C@@]1(C(=O)Nc2ccc(F)nc2)CCCN1c1nc(Nc2cc(C3CC3)n[nH]2)c2cccn2n1 + Cc1nc(NC(=O)N2CCC[C@H]2C(N)=O)sc1-c1ccnc(C(C)(C)C(F)(F)F)c1 [Alpelisib] (partner 2 µM)
# How it was run: as §1
Cell Line,relative viability ([1]; first compound 0.01 µM),relative viability ([1]; first compound 0.03162 µM),relative viability ([1]; first compound 0.1 µM),relative viability ([1]; first compound 0.3162 µM),relative viability ([1]; first compound 1 µM),relative viability ([2]; first compound 0.01 µM),relative viability ([2]; first compound 0.03162 µM),relative viability ([2]; first compound 0.1 µM),relative viability ([2]; first compound 0.3162 µM),relative viability ([2]; first compound 1 µM),relative viability ([3]; first compound 0.04 µM),relative viability ([3]; first compound 0.1265 µM),relative viability ([3]; first compound 0.4 µM),relative viability ([3]; first compound 1.265 µM),relative viability ([4]; first compound 0.04 µM),relative viability ([4]; first compound 0.1265 µM),relative viability ([4]; first compound 0.4 µM),relative viability ([4]; first compound 1.265 µM)
NCI-H1944,1.06,1.03,1.07,1.04,1.15,0.184,0.2,0.221,0.246,0.254,0.562,0.652,0.399,0.586,0.72,0.657,0.669,0.834
NCI-H1975,1.11,1.12,1.05,1.11,1.26,0.407,0.391,0.393,0.409,0.441,0.272,0.117,0.128,0.187,0.638,0.553,0.472,0.482
NCI-H1993,1.15,0.882,0.912,0.921,0.802,0.489,0.501,0.516,0.564,0.451,0.535,0.476,0.275,0.555,0.678,,0.649,0.745
NCI-H2009,1.12,1.19,1.15,1.21,1.18,0.491,0.36,0.544,0.481,0.487,1.11,1.08,1.01,1.07,1.17,1.24,1.12,1.22
NCI-H2023,0.949,0.916,1.02,1.02,0.98,0.387,0.297,0.443,0.421,0.463,0.58,0.336,0.37,0.192,0.407,0.374,0.376,0.407
NCI-H2085,1.2,1.29,1.21,1.13,1.12,0.745,0.759,0.756,0.781,0.759,0.431,0.405,0.365,0.54,0.936,0.927,0.883,0.851
NCI-H2087,0.92,1.14,0.997,0.902,1.03,0.475,0.411,0.575,0.489,0.484,0.122,0.175,0.123,0.145,1.09,1.07,0.928,0.851
NCI-H2126,0.821,0.84,0.874,0.878,0.813,0.525,0.557,0.511,0.567,0.579,0.733,0.429,0.542,0.52,0.637,0.561,0.531,0.657
NCI-H2170,0.574,0.773,0.545,0.676,0.537,0.469,0.359,0.447,0.489,0.409,0.521,0.505,0.45,0.521,0.728,0.658,0.606,0.728
NCI-H2228,1.13,0.913,0.632,1.04,1.12,0.26,0.329,0.257,0.394,0.208,0.121,0.121,0.15,0.116,0.709,0.518,0.533,0.529
NCI-H2347,0.816,0.751,0.712,0.882,1.02,0.419,0.45,0.372,0.502,0.466,0.706,0.448,0.206,0.288,1.17,0.873,0.94,1.11
NCI-H2405,,0.863,0.856,0.892,0.965,,0.265,0.404,0.402,0.422,0.549,0.489,0.374,0.432,0.785,0.688,0.552,0.573
NCI-H3122,0.937,1.04,0.981,1.06,1.04,0.351,0.338,0.409,0.427,0.375,0.0763,0.0863,0.0793,0.0682,0.637,0.514,0.631,0.564
PC-3 [JPC-3],0.83,0.883,0.802,0.779,0.827,0.482,0.478,0.458,0.512,0.507,0.642,0.646,0.561,0.8,1.06,0.945,0.893,0.974
PC-14,1.03,1.06,1,1.06,1.05,0.471,0.53,0.663,0.604,0.586,0.164,,0.12,0.175,0.89,0.828,0.833,0.941
RERF-LC-KJ,0.705,1.01,1.29,0.811,0.877,0.462,0.389,0.407,0.373,0.467,1.15,0.964,1.09,0.717,0.708,0.866,0.515,0.787
SK-LU-1,0.611,0.695,0.925,0.919,1.13,0.489,0.5,0.539,0.569,0.591,0.208,0.191,0.184,0.172,1.18,0.965,0.825,0.708
SK-MES-1,1.13,1.15,1.23,1.24,1.21,0.624,0.588,0.714,0.703,0.658,0.666,0.664,0.763,0.609,0.962,0.676,,0.843
